US11339183B2, “Phosphate and phosphonate derivatives of 7-amino-5-thio-thiazolo[4,5-d]pyrimidines and their use in treating conditions associated with elevated levels of CX3CR1 and/or CX3CL1” (KANCERA AB, priority 2018, dated 2022)
Structures can show the parent of a compound that is named as a salt.

What was measured:
[1] = Plasma concentration (AUC of plasma Compound A) in mice after intravenous and peroral administration; format: in vivo; settings: blood 0.083-24 hours; for AUC: male, CD1, mouse, plasma
Description: A peroral dosing solution of Compound A (12 mg/mL) in 30% HP-β-CD in 10 mM Na2PO4 and an intravenous dosing solution of Compound A (2.5 mg/mL) in 30% HP-β-CD in 10 mM Na2PO4 in DPBS were prepared. The intravenous dosing solution was administered to male CD1 mice (weight 28-30 g) via intravenous injection (25 mg/kg) and the peroral dosing solution was administered to male CD1 mice (weight 28-30 g) via oral gavage (120 mg/kg).
Blood was collected from the animals at time points of 0.083, 0.25, 0.5, 1, 2, 4, 6, 12 and 24 hours and analysed for blood plasma concentration, and the data generated were used to calculate the area under the curve (AUC) values shown in Table 5.
A peroral dosing solution of Compound A HCl salt (12 mg/mL) in 30% HP-β-CD in 10 mM Na2PO4 and an intravenous dosing solution of Compound A HCl salt (2.5 mg/mL) in 30% HP-β-CD in 10 mM Na2PO4 in DPBS were prepared. The intravenous dosing solution was administered to male CD1 mice (weight 28-30 g) via intravenous injection (25 mg/kg) and the peroral dosing solution was administered to male CD1 mice (weight 28-30 g) via oral gavage (125 mg/kg).
A peroral dosing solution of Example 1 disodium salt in water (15.4 mg/mL) at a pH of 7.18 and an intravenous dosing solution of Example 1 disodium salt in water (6.4 mg/mL) at a pH of 7.11 were prepared by dissolving Example 1 diammonium salt in water and adjusting the pH with 0.1M NaOH solution. The intravenous dosing solution was administered to male CD1 mice (weight 24-25 g) via tail injection (32 mg/kg) and the peroral dosing solution was administered to male CD1 mice (weight 24-25 g) via oral gavage (154 mg/kg).

[2] = Comparative stability of solutions on long-term storage at room temperature (HPLC-MS); format: physicochemical; settings: for Degradation products observed on storage in aqueous solution: HPLC-MS, storage at room temperature; for Aqueous solubility (in words): dissolving in pure water / need for co-solvents; for Stability of aqueous formulations to storage (in words): room temperature; for Compound A % area: water + 20% MeOH, 1.75 mg/mL; for Example 1 % area: aqueous solution (MilliQ water) 1.7 mg/mL
[3] = Further stability studies: aqueous solutions stored 60 days at room temperature and/or 40° C. (HPLC-MS); format: physicochemical
Description: Aqueous solutions of several of the example compounds were prepared at concentrations of 1.2 mg/mL (10 mg/mL for Example 1 (no salt)) according to the following procedures. • i) Examples 1 b, 2h and 3 (diammonium salts) were dissolved in pure water. • ii) Examples 1d (diammonium salt) and 1n (monoammonium salt) were suspended in water and Na2HPO3 was added until all of the compound was in solution. • iii) Examples 1q, 4f an 4g (no salts) were dissolved in water with added DMSO (100 μL) and (2-hydroxypropyl)-β-cyclodextrin was added until all of the compound was in solution.
The stability of the compounds to long-term storage in aqueous solution at room temperature and/or 40° C. was then assessed by analysis of the solution by HPLC-MS after 60 days.

[4] = Comparative kinetic solubility in phosphate buffer pH 7.4 (HPLC-UV); format: physicochemical; settings: aqueous buffer, kinetic from dmso stock, nominal 250 μM in 50 mM phosphate buffer pH 7.4, agitated 1 hour, filtered
Description: Samples of the compound of Example 1 and (2R)-2-[(2-amino-5-{[(1S)-1-phenylethyl]sulfanyl}-[1,3] thiazolo[4,5-d]pyrimidin-7-yl)amino]-4-methylpentan-1-ol. HCl (compound A) were diluted to a nominal concentration of 250 μM in 50 mM phosphate buffer pH 7.4 then agitated for 1 hour and filtered.
Standard solutions of the two compounds at concentrations of 25 and 250 μM in 50:50 acetontrile:water were prepared.
The solutions were then analysed by reverse phase HPLC with UV-detection, and solubility was determined by the ratio of the sample peaks to the standard curve.

[5] = aqueous solution 1.2 mg/mL, 40° C., 1d, 1n with Na2HPO3, 1q, 4f, 4g with DMSO and (2-hydroxypropyl)-β-cyclodextrin
[6] = aqueous solution 1.2 mg/mL, room temperature, 1d, 1n with Na2HPO3, 1q, 4f, 4g with DMSO and (2-hydroxypropyl)-β-cyclodextrin

In the case of `CC(C)C[C@H](CO)Nc1nc(S[C@@H](C)c2ccccc2)nc2nc(N)sc12` [Compound A, (2R)-2-[(2-amino-5-{[(1S)-1-phenylethyl]thio}[1,3]thiazolo[4,5-d]pyrimidin-7-yl)amino]-4-methylpentan-1-ol], the “Plasma Compound A AUC” value ([1]; male CD1 mice, IV, 25 mg/kg) is reported as 45.92 µM·h, the AUC ([1]; po, 120 mg/kg, PO (oral gavage), 120 mg/kg (297 mol/kg)) is reported as 92.6 µM·h and the “Compound A remaining %” value ([2]; 1.18 mg/mL in water, polyethylene glycol 24% (v/v), RT, 0 days) is reported as 98.5%. For the same compound, the “Compound A remaining %” value ([2]; 1.18 mg/mL in water, polyethylene glycol 24% (v/v), RT, 3 days) was 97.7%, the “Compound A remaining %” value ([2]; 1.18 mg/mL in water, polyethylene glycol 24% (v/v), RT, 56 days) was 28% and the “Compound A remaining %” value ([2]; 1.22 mg/mL in water, polyethylene glycol 24% (v/v), RT, 0 days) was 98.6%. For the same compound, the “Compound A remaining %” value ([2]; 1.22 mg/mL in water, polyethylene glycol 24% (v/v), RT, 3 days) was 98.0%, the “Compound A remaining %” value ([2]; 1.22 mg/mL in water, polyethylene glycol 24% (v/v), RT, 56 days) was 31% and the “Compound A remaining %” value ([2]; 2.25 mg/mL in water, polyethylene glycol 26% (v/v), RT, 0 days) was 98.5%. The “Compound A remaining %” value ([2]; 2.25 mg/mL in water, polyethylene glycol 26% (v/v), RT, 3 days) was 97.7%, the “Compound A remaining %” value ([2]; 2.25 mg/mL in water, polyethylene glycol 26% (v/v), RT, 56 days) was 35% and the “Compound A remaining %” value ([2]; 3.2 mg/mL in water, polyethylene glycol 28% (v/v), ethanol 0, RT, 0 days) was 98.4%. The “Compound A remaining %” value ([2]; 3.2 mg/mL in water, polyethylene glycol 28% (v/v), ethanol 0, RT, 14 days) was 88.1%, the “Compound A remaining %” value ([2]; 3.2 mg/mL in water, polyethylene glycol 28% (v/v), ethanol 0, RT, 70 days) was 60.7% and the “Compound A remaining %” value ([2]; 4.0 mg/mL in water, polyethylene glycol 25% (v/v), ethanol 3% (v/v), RT, 0 days) was 98.4%. The “Compound A remaining %” value ([2]; 4.0 mg/mL in water, polyethylene glycol 25% (v/v), ethanol 3% (v/v), RT, 14 days) was 92.3%, the “Compound A remaining %” value ([2]; 4.0 mg/mL in water, polyethylene glycol 25% (v/v), ethanol 3% (v/v), RT, 70 days) was 75.1% and the “Degradation products observed on storage in aqueous solution” value [2] was “the debenzylated thiol and the corresponding disulfide together with phenyl ethanol and minor amounts of styrene”. For the same compound, the “Aqueous solubility (in words)” value [2] was “not possible to dissolve”, the “Stability of aqueous formulations to storage (in words)” value [2] was “unstable to storage at room temperature” and the “Compound A % area” value ([2]; RT, 0 days) was 98.4% area. For the same compound, the “Compound A % area” value ([2]; RT, 4 days) was 96.7% area.

With `CC(C)C[C@H](COP(=O)(O)O)Nc1nc(S[C@@H](C)c2ccc(Cl)cn2)nc2[nH]c(=O)sc12` [Example 3, (2R)-2-[(5-{[(1S)-1-(5-chloropyridin-2-yl)ethyl]sulfanyl}-2-oxo-2,3-dihydro[1,3]thiazolo[4,5-d]pyrimidin-7-yl)amino]-4-methylpentyl dihydrogen phosphate] the “% Area by HPLC (60 days)” value [3, 5] was 100 % Area and the “% Area by HPLC (60 days)” value [3, 6] was 99.6 % Area.

In the case of `CC(C)C[C@H](CO)Nc1nc(S[C@@H](C)c2ccccc2)nc2nc(N)sc12` [Compound A •HCl, (2R)-2-[(2-amino-5-{[(1S)-1-phenylethyl]sulfanyl}-[1,3]thiazolo[4,5-d]pyrimidin-7-yl)amino]-4-methylpentan-1-ol. HCl], the AUC ([1]; iv, 25 mg/kg) is reported as 50.1 µM·h, the AUC ([1]; po, 125 mg/kg, PO (oral gavage), 125 mg/kg (284 mol/kg)) is reported as 170 µM·h and the solubility at 1 h [4] is reported as 5 µM.

For `CC(C)C[C@H](COP(=O)(O)OC(C)C)Nc1nc(S[C@@H](C)c2ccccc2)nc2nc(N)sc12` [Example 1n, (2R)-2-[(2-Amino-5-{[(1S)-1-phenylethyl]sulfanyl}[1,3]thiazolo[4,5-d]pyrimidin-7-yl)amino]-4-methylpentyl 1-methylethyl hydrogen phosphate], the “% Area by HPLC (60 days)” value [3, 5] was 100 % Area and the “% Area by HPLC (60 days)” value [3, 6] was 98.2 % Area.

For `CC(C)C[C@H](COP(=O)(O)O)Nc1nc(S[C@@H](C)c2ccccc2)nc2nc(N)sc12` [Example 1, (2R)-2-[(2-Amino-5-{[(1S)-1-phenylethyl]sulfanyl}[1,3]thiazolo[4,5-d]pyrimidin-7-yl)amino]-4-methylpentyl dihydrogen phosphate], the solubility at 1 h [4] was 118 µM, the “Degradation products observed on storage in aqueous solution” value [2] was “not observed” and the “Example 1 % area” value ([2]; RT, 0 days of storage) was 99.6 % area. For the same compound, the “Example 1 % area” value ([2]; RT, 4 days of storage) was 99.6 % area, the “Example 1 % area” value ([2]; RT, 13 days of storage) was 99.6 % area and the “Example 1 % area” value ([2]; RT, 20 days of storage) was 99.6 % area. For the same compound, the “Example 1 % area” value ([2]; RT, 40 days of storage) was 99.6 % area, the “Aqueous solubility (in words)” value [2] was “improved aqueous solubility (no co-solvents required)” and the “Stability of aqueous formulations to storage (in words)” value [2] was “unexpectedly pronounced stability over Compound A”. The “% Area by HPLC (60 days)” value ([3]; Example 1 (no salt), aqueous solution 10 mg/mL, 40° C.) was 100 % Area.

With `CC(C)C[C@H](COP(=O)(O)O)Nc1nc(SC(C)c2ccc(Cl)cn2)nc2nc(N)sc12` (stereo partly drawn) [Example 1d, (2R)-2-[(2-Amino-5-{[1-(5-chloropyridin-2-yl)ethyl]sulfanyl}[1,3]thiazolo[4,5-d]pyrimidin-7-yl)amino]-4-methylpentyl dihydrogen phosphate] the “% Area by HPLC (60 days)” value [3, 5] was 99.7 % Area and the “% Area by HPLC (60 days)” value [3, 6] was 98.0 % Area.

With `CC(C)C[C@H](COP(=O)(O)O)Nc1nc(SC(C)c2ccccc2F)nc2nc(N)sc12` (stereo partly drawn) [Example 1b, (2R)-2-[(2-Amino-5-{[1-(2-fluorophenyl)ethyl]sulfanyl}[1,3]thiazolo[4,5-d]pyrimidin-7-yl)amino]-4-methylpentyl dihydrogen phosphate] the “% Area by HPLC (60 days)” value [3, 5] was 100 % Area and the “% Area by HPLC (60 days)” value [3, 6] was 100 % Area.

With `CC(C)C[C@H](CO)Nc1nc(S[C@@H](C)c2ccc(Cl)cn2)nc2c1sc(=O)n2COP(=O)(O)O` [Example 2h, [5-{[(1S)-1-(5-Chloropyridin-2-yl)ethyl]sulfanyl}-7-{[(1R)-1-(hydroxymethyl)-3-methylbutyl]amino}-2-oxo[1,3]thiazolo[4,5-d]pyrimidin-3(2H)-yl]methyl dihydrogen phosphate] the “% Area by HPLC (60 days)” value [3, 5] was 82.2 % Area and the “% Area by HPLC (60 days)” value [3, 6] was 92.3 % Area.
